Where two headings read alike, the source gives them in different places.
Key:
JNK3α1 = JNK3α1 (Homo sapiens, UniProt P53779); assay type: biochemical; settings: mean of ≥2 experiments; read-out: Biochemical inhibition IC50 JNK3
Description: (§1) A 10-point titration of all compounds was carried out in 3-fold dilutions from 10 μM to 0.5 nM.

[1] = test system: JNK3-dependent phosphorylation of APP at T668; experiment: JNK3 inhibition assay in rat primary neuron cultures (Western blot, anisomycin activated); assay type: cell-based; settings: even at a concentration as low as 10 nM; FIGS. 5A-5C
Description: Both hippocampal and cortical neurons were isolated from E18 rat embryos and cultured in NbActive 1 medium that contains B27 (Brainbits, LLC) plus penicillin/streptomycin (Life Technologies). At the 7th day in culture, cells were treated with different concentrations of inhibitors diluted in DMSO and 80 ng/ml Anisomycin for 30 min to activate the endogenous JNK3. At the end of incubation time, whole cell lysates were prepared in RIPA buffer containing 50 mM Tris (pH 8.0), 150 mM NaCl, 2 mM EDTA, 1% NP-40, 0.5% deoxycholate supplemented with 10 mM Na pyrophosphate, 1 mM sodium orthovanadate, 25 mM NaF, 10 μg/ml leupeptin, 10 μg/ml aprotinin, 1 mM β-glycerophosphate, and 2 mM PMSF. The lysates were subjected to Western blotting to detect whether inhibitors block JNK3-dependent phosphorylation of APP at T668 and c-jun at S73. Phospho-APP^T668, phosphor-c-jun^S73, APP, and c-jun antibodies were from Cell Signaling Technology.

[2] = target: T1, panel of 374 wild-type kinases (Homo sapiens, UniProt O14578); experiment: biochemical; settings: read-out: % Enzyme Activity (relative to DMSO controls), kinase STK21/CIT
T1 construct: purchased Reaction Biology Corporation

[3] = target: T2, panel of 374 wild-type kinases (Homo sapiens, UniProt Q12852); experiment: biochemical; settings: read-out: % Enzyme Activity (relative to DMSO controls), DLK/MAP3K12; 5 uM
T2 construct: purchased Reaction Biology Corporation
T2 sequence (Q12852 whole entry): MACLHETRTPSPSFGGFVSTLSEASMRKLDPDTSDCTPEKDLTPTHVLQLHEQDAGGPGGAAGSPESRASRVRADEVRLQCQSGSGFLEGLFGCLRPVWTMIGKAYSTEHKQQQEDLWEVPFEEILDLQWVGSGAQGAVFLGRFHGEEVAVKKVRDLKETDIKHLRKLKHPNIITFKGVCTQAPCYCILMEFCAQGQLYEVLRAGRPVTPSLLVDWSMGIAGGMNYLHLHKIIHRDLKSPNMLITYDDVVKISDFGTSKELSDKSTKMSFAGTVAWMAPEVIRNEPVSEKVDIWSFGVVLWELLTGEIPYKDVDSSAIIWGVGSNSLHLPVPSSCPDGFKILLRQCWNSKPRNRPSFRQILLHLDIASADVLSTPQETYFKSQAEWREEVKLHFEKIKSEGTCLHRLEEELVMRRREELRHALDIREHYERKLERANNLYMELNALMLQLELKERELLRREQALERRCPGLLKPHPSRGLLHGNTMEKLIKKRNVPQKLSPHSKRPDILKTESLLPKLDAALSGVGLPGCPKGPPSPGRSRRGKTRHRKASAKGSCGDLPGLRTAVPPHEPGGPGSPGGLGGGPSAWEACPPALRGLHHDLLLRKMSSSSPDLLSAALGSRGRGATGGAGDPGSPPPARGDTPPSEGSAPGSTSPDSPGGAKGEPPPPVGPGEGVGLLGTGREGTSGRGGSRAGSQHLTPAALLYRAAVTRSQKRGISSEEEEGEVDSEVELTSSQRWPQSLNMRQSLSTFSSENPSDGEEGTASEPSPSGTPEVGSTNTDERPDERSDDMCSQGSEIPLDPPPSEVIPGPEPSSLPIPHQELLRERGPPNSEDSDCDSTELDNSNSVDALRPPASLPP

[4] = target: T3, panel of 374 wild-type kinases (Homo sapiens, UniProt Q99640); experiment: biochemical; settings: read-out: % Enzyme Activity (relative to DMSO controls), kinase PKMYT1; 5 uM
T3 construct: purchased Reaction Biology Corporation

[5] = target: T4, panel of 374 wild-type kinases (Homo sapiens, UniProt Q02156); experiment: biochemical; settings: read-out: % Enzyme Activity (relative to DMSO controls), kinase PKCepsilon; 5 uM
T4 construct: purchased Reaction Biology Corporation
T4 sequence (Q02156 whole entry): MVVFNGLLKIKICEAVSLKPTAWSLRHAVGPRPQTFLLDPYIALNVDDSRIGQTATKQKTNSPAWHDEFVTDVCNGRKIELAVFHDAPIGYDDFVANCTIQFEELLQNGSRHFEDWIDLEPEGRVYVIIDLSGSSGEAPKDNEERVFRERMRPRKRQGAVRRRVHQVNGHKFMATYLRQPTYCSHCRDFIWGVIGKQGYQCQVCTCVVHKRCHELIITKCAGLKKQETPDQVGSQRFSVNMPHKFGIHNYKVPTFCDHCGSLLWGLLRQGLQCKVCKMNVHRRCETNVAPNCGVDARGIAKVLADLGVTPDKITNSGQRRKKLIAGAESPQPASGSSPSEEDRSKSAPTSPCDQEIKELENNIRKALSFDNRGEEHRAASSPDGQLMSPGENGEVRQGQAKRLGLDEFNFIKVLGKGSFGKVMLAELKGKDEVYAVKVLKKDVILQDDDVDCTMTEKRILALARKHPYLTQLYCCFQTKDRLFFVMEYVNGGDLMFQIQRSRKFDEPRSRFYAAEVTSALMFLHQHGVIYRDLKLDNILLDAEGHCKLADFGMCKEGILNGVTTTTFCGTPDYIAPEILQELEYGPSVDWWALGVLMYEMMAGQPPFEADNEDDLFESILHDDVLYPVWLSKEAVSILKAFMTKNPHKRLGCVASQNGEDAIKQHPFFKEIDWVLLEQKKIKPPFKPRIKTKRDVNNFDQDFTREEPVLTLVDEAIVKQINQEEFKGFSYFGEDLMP

[6] = target: T5, panel of 374 wild-type kinases (Homo sapiens, UniProt Q00534); experiment: biochemical; settings: 5 uM
T5 construct: purchased Reaction Biology Corporation
T5 sequence (Q00534 whole entry): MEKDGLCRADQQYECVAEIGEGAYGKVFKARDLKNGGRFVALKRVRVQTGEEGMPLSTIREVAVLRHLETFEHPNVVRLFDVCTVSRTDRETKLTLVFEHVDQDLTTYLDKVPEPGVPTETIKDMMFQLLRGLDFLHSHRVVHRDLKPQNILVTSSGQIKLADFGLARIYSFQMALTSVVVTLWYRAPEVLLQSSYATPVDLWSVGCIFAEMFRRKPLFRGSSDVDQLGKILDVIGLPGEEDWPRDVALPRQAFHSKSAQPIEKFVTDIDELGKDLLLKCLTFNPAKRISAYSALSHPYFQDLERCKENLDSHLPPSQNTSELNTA

[7] = target: T6, panel of 374 wild-type kinases (Homo sapiens, UniProt Q8IY84); experiment: biochemical; settings: read-out: % Enzyme Activity (relative to DMSO controls), NIM1; 5 uM
T6 construct: purchased Reaction Biology Corporation
T6 sequence (Q8IY84 whole entry): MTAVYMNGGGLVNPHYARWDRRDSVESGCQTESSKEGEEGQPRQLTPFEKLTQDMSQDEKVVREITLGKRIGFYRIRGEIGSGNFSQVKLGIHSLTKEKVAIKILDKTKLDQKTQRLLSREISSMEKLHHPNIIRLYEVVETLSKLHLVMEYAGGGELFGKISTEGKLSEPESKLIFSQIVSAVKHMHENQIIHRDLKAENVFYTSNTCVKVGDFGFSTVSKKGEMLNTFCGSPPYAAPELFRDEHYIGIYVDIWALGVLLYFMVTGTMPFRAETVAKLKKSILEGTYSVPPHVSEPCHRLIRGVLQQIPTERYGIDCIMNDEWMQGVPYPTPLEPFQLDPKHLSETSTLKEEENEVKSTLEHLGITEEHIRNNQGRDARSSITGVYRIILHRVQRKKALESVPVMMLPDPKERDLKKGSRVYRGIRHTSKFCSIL

[8] = target: T7, panel of 374 wild-type kinases (Homo sapiens, UniProt P30291); experiment: biochemical; settings: read-out: % Enzyme Activity (relative to DMSO controls), kinase WEE1; 5 uM
T7 construct: purchased Reaction Biology Corporation
T7 sequence (P30291 whole entry): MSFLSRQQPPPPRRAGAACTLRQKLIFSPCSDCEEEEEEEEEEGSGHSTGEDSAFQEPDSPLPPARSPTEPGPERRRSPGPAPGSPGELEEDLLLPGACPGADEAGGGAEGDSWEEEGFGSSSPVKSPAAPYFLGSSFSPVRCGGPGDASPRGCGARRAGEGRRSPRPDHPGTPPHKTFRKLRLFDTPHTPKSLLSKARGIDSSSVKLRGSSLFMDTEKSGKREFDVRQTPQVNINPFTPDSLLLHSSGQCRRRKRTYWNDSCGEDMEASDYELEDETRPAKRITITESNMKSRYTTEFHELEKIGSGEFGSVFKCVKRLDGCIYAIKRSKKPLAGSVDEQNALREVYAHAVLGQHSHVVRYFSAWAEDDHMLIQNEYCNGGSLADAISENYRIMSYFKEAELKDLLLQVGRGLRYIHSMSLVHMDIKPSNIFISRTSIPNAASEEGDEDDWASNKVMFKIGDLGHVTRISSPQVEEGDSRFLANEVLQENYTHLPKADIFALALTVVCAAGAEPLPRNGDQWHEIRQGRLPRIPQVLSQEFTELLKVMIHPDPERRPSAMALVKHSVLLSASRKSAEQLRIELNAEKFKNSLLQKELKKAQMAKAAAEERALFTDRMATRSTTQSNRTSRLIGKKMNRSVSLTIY

[9] = target: T8, panel of 374 wild-type kinases (Homo sapiens, UniProt Q56UN5); experiment: biochemical; settings: read-out: % Enzyme Activity (relative to DMSO controls), kinase YSK4/MAP3K19
T8 construct: purchased Reaction Biology Corporation
T8 sequence (Q56UN5 whole entry): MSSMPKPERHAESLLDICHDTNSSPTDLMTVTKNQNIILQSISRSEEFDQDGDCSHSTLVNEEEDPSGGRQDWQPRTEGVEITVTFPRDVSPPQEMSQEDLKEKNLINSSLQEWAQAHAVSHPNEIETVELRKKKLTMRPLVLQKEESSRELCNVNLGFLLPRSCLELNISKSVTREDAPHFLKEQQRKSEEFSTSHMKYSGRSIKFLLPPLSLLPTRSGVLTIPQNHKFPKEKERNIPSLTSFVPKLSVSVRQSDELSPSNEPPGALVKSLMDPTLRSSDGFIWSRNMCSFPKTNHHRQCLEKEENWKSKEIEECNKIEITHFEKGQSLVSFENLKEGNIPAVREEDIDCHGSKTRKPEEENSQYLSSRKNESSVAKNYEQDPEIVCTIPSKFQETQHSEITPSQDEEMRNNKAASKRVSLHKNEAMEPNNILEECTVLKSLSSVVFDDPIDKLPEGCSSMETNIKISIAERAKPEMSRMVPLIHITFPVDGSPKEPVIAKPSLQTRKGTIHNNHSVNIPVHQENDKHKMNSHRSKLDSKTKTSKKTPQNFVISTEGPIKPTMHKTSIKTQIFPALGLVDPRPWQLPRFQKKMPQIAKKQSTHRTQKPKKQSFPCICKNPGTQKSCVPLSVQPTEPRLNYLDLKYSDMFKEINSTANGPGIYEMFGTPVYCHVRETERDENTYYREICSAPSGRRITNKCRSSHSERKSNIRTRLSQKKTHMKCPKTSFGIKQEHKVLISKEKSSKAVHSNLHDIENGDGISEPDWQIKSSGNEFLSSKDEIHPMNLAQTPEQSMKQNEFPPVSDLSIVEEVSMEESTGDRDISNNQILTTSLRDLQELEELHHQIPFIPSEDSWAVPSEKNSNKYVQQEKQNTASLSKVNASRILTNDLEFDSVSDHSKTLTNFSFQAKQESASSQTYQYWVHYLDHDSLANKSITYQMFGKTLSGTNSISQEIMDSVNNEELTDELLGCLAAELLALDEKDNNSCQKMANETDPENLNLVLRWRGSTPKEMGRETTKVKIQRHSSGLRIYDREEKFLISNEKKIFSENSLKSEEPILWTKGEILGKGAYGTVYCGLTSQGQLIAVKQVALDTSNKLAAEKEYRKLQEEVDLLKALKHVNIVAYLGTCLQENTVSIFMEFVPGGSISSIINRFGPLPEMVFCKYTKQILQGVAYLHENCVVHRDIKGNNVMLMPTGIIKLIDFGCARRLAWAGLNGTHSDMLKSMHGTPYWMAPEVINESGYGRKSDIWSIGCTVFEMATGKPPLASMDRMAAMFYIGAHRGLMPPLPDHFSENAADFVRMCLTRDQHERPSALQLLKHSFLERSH

[10] = target: T9, panel of 374 wild-type kinases (Homo sapiens, UniProt Q86SG6); experiment: biochemical; settings: read-out: % Enzyme Activity (relative to DMSO controls), NEK8; 5 uM
T9 construct: purchased Reaction Biology Corporation

[11] = Pharmacokinetics / brain exposure in mice; assay type: in vivo, C57Bl/6J mice
Description: Pharmacokinetics studies were conducted in C57Bl/6J mice. The compound was formulated in a generic formulation at 1 mg/mL (e.g. 10:40:4:46, DMSO:PEG 400: tween 80: PBS, v:v:v:v) or other specified formulations and dosed at 1 mg/kg intravenous into the femoral vein or 1-10 mg/kg by oral gavage, or […]. Blood was obtained at t=5 min, 15 min, 30 min, 1 hr, 2 hr, 4 hr, 6 hr, and 8 hr. Blood was collected by heart puncture into EDTA containing tubes and plasma was generated by standard centrifugation methods. Brains were collected following perfusion with ice-cold saline, and snap frozen in liquid N2. Both plasma and brains were stored at −80° C. until processing. All procedures and handling were according to standard operating procedures approved by […] at Scripps Florida and/or Ohio State University. In order to assess in vivo pharmacokinetic parameters an LC-MS/MS bioanalytical method was developed where 25 TI of plasma was treated with 125 TI of acetonitrile containing an internal standard in a Millipore Multscreen Slovinter 0.45 micron low binding PTFE hydrophilic filter plate (#MSRLN0450) and allowed to shake at room temperature for five minute. The plate was then centrifuged for 5 minutes at 4000 rpm in a tabletop centrifuge and the filtrate was collected in a polypropylene capture plate. The filtrate (10 TI) is injected using an Agilent 1200 HPLC equipped with a Thermo Betasil C18 HPLC column 5 T (50×2.1 mm) #70105-052130. Mobile Phase A was water with 0.1% formic acid. Mobile phase B was acetonitrile with 0.1% formic acid. […] An API Sciex 4000 equipped with a turbo ion spray source was used for all analytical measurement. MRM methods were developed in position ion mode. Peak areas of the analyte ion were measured against the peak areas of the internal standard. Data was fit using WinNonLin using an IV bolus model.

p38α = p38α (Homo sapiens, UniProt Q16539); experiment: p38 enzyme inhibition assay; settings: mean of ≥2 experiments; read-out: Biochemical inhibition IC50 p38α
JNK2 = JNK2 (Homo sapiens, UniProt P45984); experiment: JNK2 homogeneous time-resolved fluorescence enzyme inhibition assay; assay type: biochemical; settings: mean of ≥2 experiments; read-out: Biochemical inhibition IC50 JNK2
Description: as §1

JNK1 = JNK1 (Homo sapiens, UniProt P45983); experiment: JNK1 homogeneous time-resolved fluorescence enzyme inhibition assay; assay type: biochemical; settings: mean of ≥2 experiments; read-out: Biochemical inhibition IC50 JNK1
Description: as §1

[12] = target: T10, panel of 374 wild-type kinases (Homo sapiens, UniProt O43293); experiment: biochemical; settings: read-out: % Enzyme Activity (relative to DMSO controls), kinase ZIPK/DAPK3
T10 construct: purchased Reaction Biology Corporation
T10 sequence (O43293 whole entry): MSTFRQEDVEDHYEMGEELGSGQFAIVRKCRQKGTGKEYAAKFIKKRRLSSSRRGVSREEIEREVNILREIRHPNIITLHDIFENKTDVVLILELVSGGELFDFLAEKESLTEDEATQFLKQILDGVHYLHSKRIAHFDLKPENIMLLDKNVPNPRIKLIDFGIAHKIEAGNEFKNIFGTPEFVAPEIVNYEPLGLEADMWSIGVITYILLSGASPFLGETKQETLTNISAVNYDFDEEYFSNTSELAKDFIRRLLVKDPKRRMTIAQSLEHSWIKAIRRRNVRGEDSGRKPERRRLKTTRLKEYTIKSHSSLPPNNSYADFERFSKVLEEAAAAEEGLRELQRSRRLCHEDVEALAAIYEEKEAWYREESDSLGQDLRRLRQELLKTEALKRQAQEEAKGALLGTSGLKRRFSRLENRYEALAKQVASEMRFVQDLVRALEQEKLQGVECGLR

[13] = read-out: % Enzyme Activity (relative to DMSO controls), CDK6/cyclin D1
[14] = read-out: % Enzyme Activity (relative to DMSO controls), CDK6/cyclin D3

Structure (SMILES): O=C(Nc1cnn(-c2csc(C(=O)NC3COC3)c2)c1)Nc1ccccc1Cl [Compound 17, 4-(4-(3-(2-chlorophenyl)ureido)-1H-pyrazol-1-yl)-N-(oxetan-3-yl)thiophene-2-carboxamide]
- IC50 (JNK3α1): 35 nM
- inhibition of phosphorylation of residue T668 of APP [1]: significantly inhibited
- remaining activity at 5 µM ([2]; 5 uM): 90.1%
- remaining activity at 5 µM [3]: 96.5%
- remaining activity at 5 µM [4]: 87%
- remaining activity at 5 µM [5]: 102%
- remaining activity at 5 µM [6, 13]: 95.4%
- remaining activity at 5 µM [6, 14]: 114%
- remaining activity at 5 µM [7]: 101%
- remaining activity at 5 µM [8]: 124%
- remaining activity at 5 µM ([9]; 5 uM): 105%
- remaining activity at 5 µM [10]: 107%
- brain penetration capability ([11]; po dosing): brain penetrant
- oral bioavailability ([11]; po dosing): has oral bioavailability
- Brain Concentration ([11]; po, 10 mg/kg): 1080 nM
- Plasma Concentration ([11]; po, 10 mg/kg): 960 nM
- IC50 (p38α): > 20000 nM
- IC50 (JNK2): 1360 nM
- IC50 (JNK1): 5900 nM

Structure (SMILES): O=C(Nc1cnn(-c2csc(C(=O)NC3COC3)c2)c1)Nc1c(F)cccc1Cl [Compound 25, 4-(4-(3-(2-chloro-6-fluorophenyl)ureido)-1H-pyrazol-1-yl)-N-(oxetan-3-yl)thiophene-2-carboxamide]
- remaining activity at 5 µM ([12]; 5 uM): 108%
- remaining activity at 5 µM [3]: 82.2%
- remaining activity at 5 µM [4]: 89.6%
- remaining activity at 5 µM [5]: 94.2%
- remaining activity at 5 µM [6, 13]: 105%
- remaining activity at 5 µM [6, 14]: 92.6%
- remaining activity at 5 µM [7]: 70.7%
- remaining activity at 5 µM [8]: 85.2%

Structure (SMILES): Cc1sc(C(=O)NC2COC2)cc1-n1cc(NC(=O)Nc2c(F)cccc2Cl)cn1 [Compound 27, 4-(4-(3-(2-chloro-6-fluorophenyl)ureido)-1H-pyrazol-1-yl)-5-methyl-N-(oxetan-3-yl)thiophene-2-carboxamide]
- remaining activity at 10 µM ([2]; 10 uM): 98.8%
- remaining activity at 10 µM ([12]; 10 uM): 101%
- remaining activity at 10 µM ([9]; 10 uM): 95.5%

Source: patent publication US20240246942A1, “KINASE INHIBITORS FOR THE TREATMENT OF NEURODEGENERATIVE DISEASES” (priority 2020, published 2024)
